Test results published in the supplement of paper PMC10307832.

Experiments:
Test in all cases: relative viability (nuclei count vs DMSO), 5 days (fraction); higher = more cells survive
[1] = system: NCI-H1651
Summary of the method: (§1)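 Dosing by pin tool came one day after lung cancer cell lines were seeded in 1536-well plates, using either one drug or a fixed anchor-drug dose plus five library-drug doses (not always all listed) in √10 steps. After 5 days, nuclei were counted on 4× images. Relative viability is treated-well nuclei count divided by vehicle-well nuclei count, and values are medians of duplicate plates.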

[2] = system: LOU-NH91
Summary of the method: as §1

[3] = system: NCI-H1734
Summary of the method: as §1

[4] = system: 201T
Summary of the method: as §1

[5] = system: ABC-1
Summary of the method: as §1

[6] = system: NCI-H647
Summary of the method: as §1

[7] = system: UMC-11
Summary of the method: as §1

[8] = system: EMC-BAC-2
Summary of the method: as §1

[9] = system: NCI-H23
Summary of the method: as §1

[10] = system: NCI-H2405
Summary of the method: as §1

[11] = system: NCI-H1793
Summary of the method: as §1

[12] = system: NCI-H1792
Summary of the method: as §1

[13] = system: SK-LU-1
Summary of the method: as §1

[14] = system: NCI-H1395
Summary of the method: as §1

[15] = system: LCLC-103H
Summary of the method: as §1

[16] = system: NCI-H661
Summary of the method: as §1

[17] = system: NCI-H1437
Summary of the method: as §1

[18] = system: EPLC-272H
Summary of the method: as §1

[19] = system: RERF-LC-KJ
Summary of the method: as §1

[20] = system: NCI-H1975
Summary of the method: as §1

[21] = system: NCI-H1915
Summary of the method: as §1

[22] = system: NCI-H2023
Summary of the method: as §1

[23] = system: HCC-78
Summary of the method: as §1

For `O=c1[nH]c2ccccc2n1C1CCN(CCCC(c2ccc(F)cc2)c2ccc(F)cc2)CC1` [Pimozide] + Nc1ncn([C@H]2C[C@H](O)[C@@H](CO)O2)c(=O)n1 [Decitabine] (partner 2 µM), the relative viability ([1]; first compound 0.08 µM) was 0.597, the relative viability ([1]; first compound 0.253 µM) was 0.507 and the relative viability ([1]; first compound 0.8 µM) was 0.719. It also gave a relative viability ([1]; first compound 2.53 µM) of 0.588, a relative viability ([1]; first compound 8 µM) of 0.611 and a relative viability ([2]; first compound 0.08 µM) of 0.64. For the same compound, the relative viability ([2]; first compound 0.253 µM) was 0.818, the relative viability ([2]; first compound 0.8 µM) was 0.778 and the relative viability ([2]; first compound 2.53 µM) was 0.829. It also gave a relative viability ([2]; first compound 8 µM) of 0.866, a relative viability ([3]; first compound 0.08 µM) of 0.51 and a relative viability ([3]; first compound 0.253 µM) of 0.489. It also gave a relative viability ([3]; first compound 0.8 µM) of 0.525, a relative viability ([3]; first compound 2.53 µM) of 0.431 and a relative viability ([3]; first compound 8 µM) of 0.509. The relative viability ([4]; first compound 0.08 µM) was 0.827, the relative viability ([4]; first compound 0.253 µM) was 0.846 and the relative viability ([4]; first compound 0.8 µM) was 0.829. The relative viability ([4]; first compound 2.53 µM) was 0.844, the relative viability ([4]; first compound 8 µM) was 0.711 and the relative viability ([5]; first compound 0.08 µM) was 1.18. The relative viability ([5]; first compound 0.253 µM) was 0.831, the relative viability ([5]; first compound 0.8 µM) was 1.22 and the relative viability ([5]; first compound 2.53 µM) was 1.08. It also gave a relative viability ([5]; first compound 8 µM) of 1.02, a relative viability ([6]; first compound 0.08 µM) of 0.37 and a relative viability ([6]; first compound 0.253 µM) of 0.363. For the same compound, the relative viability ([6]; first compound 0.8 µM) was 0.392, the relative viability ([6]; first compound 2.53 µM) was 0.442 and the relative viability ([6]; first compound 8 µM) was 0.508. It also gave a relative viability ([7]; first compound 0.08 µM) of 0.638, a relative viability ([7]; first compound 0.253 µM) of 0.579 and a relative viability ([7]; first compound 0.8 µM) of 0.53. It also gave a relative viability ([7]; first compound 2.53 µM) of 0.593, a relative viability ([7]; first compound 8 µM) of 1.03 and a relative viability ([8]; first compound 0.08 µM) of 0.956. For the same compound, the relative viability ([8]; first compound 0.253 µM) was 0.918, the relative viability ([8]; first compound 0.8 µM) was 0.911 and the relative viability ([8]; first compound 2.53 µM) was 0.953. It also gave a relative viability ([8]; first compound 8 µM) of 0.983, a relative viability ([9]; first compound 0.08 µM) of 0.304 and a relative viability ([9]; first compound 0.253 µM) of 0.301. For the same compound, the relative viability ([9]; first compound 0.8 µM) was 0.294, the relative viability ([9]; first compound 2.53 µM) was 0.333 and the relative viability ([9]; first compound 8 µM) was 0.325. It also gave a relative viability ([10]; first compound 0.08 µM) of 0.71, a relative viability ([10]; first compound 0.253 µM) of 0.686 and a relative viability ([10]; first compound 0.8 µM) of 0.695. For the same compound, the relative viability ([10]; first compound 2.53 µM) was 0.69, the relative viability ([10]; first compound 8 µM) was 0.669 and the relative viability ([11]; first compound 0.08 µM) was 0.501. It also gave a relative viability ([11]; first compound 0.253 µM) of 0.489, a relative viability ([11]; first compound 0.8 µM) of 0.516 and a relative viability ([11]; first compound 2.53 µM) of 0.556. It also gave a relative viability ([11]; first compound 8 µM) of 0.58, a relative viability ([12]; first compound 0.08 µM) of 0.59 and a relative viability ([12]; first compound 0.253 µM) of 0.53. The relative viability ([12]; first compound 0.8 µM) was 0.33, the relative viability ([12]; first compound 2.53 µM) was 0.534 and the relative viability ([12]; first compound 8 µM) was 0.547. It also gave a relative viability ([13]; first compound 0.08 µM) of 0.631, a relative viability ([13]; first compound 0.253 µM) of 0.741 and a relative viability ([13]; first compound 0.8 µM) of 0.6. The relative viability ([13]; first compound 2.53 µM) was 0.583, the relative viability ([13]; first compound 8 µM) was 0.49 and the relative viability ([14]; first compound 0.08 µM) was 0.692. For the same compound, the relative viability ([14]; first compound 0.253 µM) was 0.74, the relative viability ([14]; first compound 0.8 µM) was 0.633 and the relative viability ([14]; first compound 2.53 µM) was 0.691. It also gave a relative viability ([14]; first compound 8 µM) of 0.637, a relative viability ([15]; first compound 0.08 µM) of 0.765 and a relative viability ([15]; first compound 0.253 µM) of 0.712. For the same compound, the relative viability ([15]; first compound 0.8 µM) was 0.674, the relative viability ([15]; first compound 2.53 µM) was 0.691 and the relative viability ([15]; first compound 8 µM) was 0.707. It also gave a relative viability ([16]; first compound 0.08 µM) of 0.564, a relative viability ([16]; first compound 0.253 µM) of 0.581 and a relative viability ([16]; first compound 0.8 µM) of 0.48. It also gave a relative viability ([16]; first compound 2.53 µM) of 0.497, a relative viability ([16]; first compound 8 µM) of 0.495 and a relative viability ([17]; first compound 0.08 µM) of 0.632. For the same compound, the relative viability ([17]; first compound 0.253 µM) was 0.547, the relative viability ([17]; first compound 0.8 µM) was 0.555 and the relative viability ([17]; first compound 2.53 µM) was 0.465. It also gave a relative viability ([17]; first compound 8 µM) of 0.549, a relative viability ([18]; first compound 0.08 µM) of 0.309 and a relative viability ([18]; first compound 0.253 µM) of 0.362. For the same compound, the relative viability ([18]; first compound 0.8 µM) was 0.33, the relative viability ([18]; first compound 2.53 µM) was 0.32 and the relative viability ([18]; first compound 8 µM) was 0.318. The relative viability ([19]; first compound 0.08 µM) was 0.674, the relative viability ([19]; first compound 0.253 µM) was 0.562 and the relative viability ([19]; first compound 0.8 µM) was 0.63. The relative viability ([19]; first compound 2.53 µM) was 0.401, the relative viability ([19]; first compound 8 µM) was 0.544 and the relative viability ([20]; first compound 0.08 µM) was 0.347. It also gave a relative viability ([20]; first compound 0.253 µM) of 0.387, a relative viability ([20]; first compound 0.8 µM) of 0.391 and a relative viability ([20]; first compound 2.53 µM) of 0.368. It also gave a relative viability ([20]; first compound 8 µM) of 0.419, a relative viability ([21]; first compound 0.08 µM) of 0.267 and a relative viability ([21]; first compound 0.253 µM) of 0.248. For the same compound, the relative viability ([21]; first compound 2.53 µM) was 0.262, the relative viability ([21]; first compound 8 µM) was 0.262 and the relative viability ([22]; first compound 0.08 µM) was 0.229. It also gave a relative viability ([22]; first compound 0.253 µM) of 0.273, a relative viability ([22]; first compound 0.8 µM) of 0.196 and a relative viability ([22]; first compound 2.53 µM) of 0.247. The relative viability ([22]; first compound 8 µM) was 0.284, the relative viability ([23]; first compound 0.08 µM) was 0.735 and the relative viability ([23]; first compound 0.8 µM) was 0.671. For the same compound, the relative viability ([23]; first compound 2.53 µM) was 0.671 and the relative viability ([23]; first compound 8 µM) was 0.702.
